# “And” between values parts separate entries of the source, which are not always exact repeats. Equal entries are not always repeated.
# What was measured:
# MRGPRX4 (S83) = target: T1, MRGPRX4 (S83) (Homo sapiens, UniProt Q96LA9, L83S); test: EC50 determination, intracellular calcium mobilization in MRGPRX4 stably expressed HEK293 cells (FLIPR Calcium 5, Flexstation-3); format: cell-based; design: Fig. 1D dose-response, calcium mobilization response (individual replicate) / calcium mobilization response (Fig. 1D dose-response raw data): unit not given here
# T1 construct: expressed in transfected cells
# Summary of the method: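 EC50 came from a four-parameter logistic fit to averaged triplicate responses, each response being maximum post-stimulation signal less baseline. Intracellular calcium was monitored with Calcium 5 dye in HBSS with 20 mM HEPES, pH 7.4, after 1 h dye loading at 37 °C, using stably transfected HEK293 cells and parental controls.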
# [1] = test system: NP2-X4+ mice (MRGPRX4 in Mrgpra3+ NP2 sensory neurons); test: Itch behavioral study (scratching bouts after subcutaneous nape injection) in NP2-X4+ mice; format: in vivo, mouse
# NP2-WT mice = test: Itch behavioral study (scratching bouts after subcutaneous nape injection) in littermate control NP2-WT mice; format: in vivo; conditions: 30 min after injection of 50 μl 10 mM into the nape, each cell one mouse
# Description: Fig. 2. Phosphate monoester prodrugs induce itch in NP2-MRGPRX4+ mice through activating NP2 primary sensory neurons. (A) Mating strategy to generate NP2-X4+ mice. (B) In situ hybridization showing MRGPRX4 transcripts (magenta) in NP2-X4+ DRG as indicated by arrowheads (left) but not in littermate control NP2-WT (right). NP2 subpopulation accounts for 5% of total DRG neurons. DAPI, blue. Scale bar, 50 μm. […] . Data are expressed as mean ± SEM. *p< 0.05, **p< 0.01 and ***p< 0.001 by two-tailed unpaired Student’s t-test. ns = no statistical significance observed. (D and E) Traces of average (top, depicted as mean ± 95% confidence interval) and individual (bottom, reflected by the heatmap) calcium activity, measured by fluorescence intensity normalized to the baseline intensity (FT/F0) over time of NP2-X4+ (D) and NP2-WT (E) DRG neurons labelled with GCaMP6s (n = 110–150 neurons pooled from 3–7 independent culture vessels from 2–4 mice in each condition). 10 μM phospho-drugs and 1 mM CQ were added as indicated by the arrowheads. Neurons with FT/F0 > 1.5 after compound application were considered a positive responder. NP2-X4+: NP2-MRGPRX4+; DRG, dorsal root ganglia; CQ: chloroquine.
# . All the animals used were heterozygous unless otherwise specified. NP2-X4+ and NP2-WT littermates were generated by crossing Mrgpra3-Cre to Rosa26-lsl-MRGPRX4 as detailed previously ([15]). NP2-X4+ mice were further crossed to homozygous Rosa26-lsl-GCaMP6s to obtain NP2-WT/GCaMP6s and NP2-X4+/GCaMP6s animals. A detailed mating strategy is illustrated in fig. S5. Pirt-Cre-GCaMP6s animals were acquired by crossing Pirt-Cre to homozygous Rosa26-lsl-GCaMP6s. Pirt-Cre animals were generated through homologous recombination as indicated previously ([37]). Rosa26-lsl-GCaMP6s mouse line was provided by Dr. Dwight Bergles’ lab at the Johns Hopkins School of Medicine.
# T1 sequence (Q96LA9 whole entry L83S): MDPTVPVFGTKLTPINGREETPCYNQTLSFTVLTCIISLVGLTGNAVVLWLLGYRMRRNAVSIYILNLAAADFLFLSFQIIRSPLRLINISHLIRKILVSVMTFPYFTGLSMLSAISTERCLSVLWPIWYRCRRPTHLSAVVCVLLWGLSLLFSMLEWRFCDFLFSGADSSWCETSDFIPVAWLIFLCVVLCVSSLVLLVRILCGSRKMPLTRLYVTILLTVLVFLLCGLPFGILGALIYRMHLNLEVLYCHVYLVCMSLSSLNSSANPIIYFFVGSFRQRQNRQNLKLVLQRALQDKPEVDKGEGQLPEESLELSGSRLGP
smiles,measurement,setting,value
CC(=O)OCC(=O)[C@@]1(O)[C@H](C)C[C@H]2[C@@H]3CCC4=CC(=O)C=C[C@]4(C)[C@@]3(F)[C@@H](O)C[C@@]21C [Dexamethasone acetate],"Fig. 1D dose-response, calcium mobilization response (individual replicate)",MRGPRX4 (S83); Concentration 9.76563e-7 M,-48.502 and -46.356 and -48.988 and -43.676 and -48.158 and -43.385 and -85.123 and -4.652 and -42.229
same,"Fig. 1D dose-response, calcium mobilization response (individual replicate)",MRGPRX4 (S83); Concentration 1.95313e-6 M,-22.164 and -36.691 and -35.570 and -37.729 and -34.474 and -34.794 and -19.078 and -53.999 and -20.889
same,"Fig. 1D dose-response, calcium mobilization response (individual replicate)",MRGPRX4 (S83); Concentration 3.90625e-6 M,-39.055 and -53.135 and -70.767 and -48.544 and -36.360 and -36.045 and -91.099 and -38.430 and -1.751
same,"Fig. 1D dose-response, calcium mobilization response (individual replicate)",MRGPRX4 (S83); Concentration 7.8125e-6 M,-33.331 and -71.560 and -49.660 and -45.756 and -42.005 and -31.885 and -29.162 and -70.876 and -31.653
same,"Fig. 1D dose-response, calcium mobilization response (individual replicate)",MRGPRX4 (S83); Concentration 1.5625e-5 M,-37.387 and -60.340 and -52.439 and -33.449 and -38.008 and -34.728 and -69.819 and -42.708 and -12.221
same,"Fig. 1D dose-response, calcium mobilization response (individual replicate)",MRGPRX4 (S83); Concentration 3.125e-5 M,-47.434 and -56.549 and -63.778 and -43.258 and -41.889 and -38.256 and -62.786 and -46.904 and -33.452
same,"Fig. 1D dose-response, calcium mobilization response (individual replicate)",MRGPRX4 (S83); Concentration 6.25e-5 M,-61.858 and -50.883 and -76.723 and -47.363 and -44.877 and -37.522 and -10.190 and -37.194 and -110.631
same,"Fig. 1D dose-response, calcium mobilization response (individual replicate)",MRGPRX4 (S83); Concentration 0.00025 M,-64.043 and -50.303 and -56.027 and -44.560 and -42.575 and -45.473 and -89.145 and -53.447 and -8.636
same,"Fig. 1D dose-response, calcium mobilization response (individual replicate)",MRGPRX4 (S83); Concentration 0.0005 M,-48.359 and -6.029 and -35.851 and -38.822 and -45.234 and -19.021 and -30.402 and -28.831 and -36.978
same,"Fig. 1D dose-response, calcium mobilization response (individual replicate)",MRGPRX4 (S83); Concentration 0.001 M,-37.786 and -38.347 and -50.572 and -37.033 and -22.575 and -15.877 and -9.453 and -18.673 and -62.758
same,Itch in both NP2-X4+ and littermate WT controls,[1]; 50 μl 10 mM nape injection,slightly elevated itch
same,"Scratching / itch behavior, NP2-X4+ mice vs WT littermates","[1]; 50 μl 10 mM nape injection, 30 min",no differences in itch behavior were detected
same,Scratching bouts of individual animals,"[1]; NP2-X4+, 30 min after injection of 50 μl 10 mM into the nape, each cell one mouse",0 and 26 and 59 and 22 and 2 and 3 and 9 (2×) and 20
same,Scratching bouts of individual animals,NP2-WT mice,20 and 31 and 30 and 18 and 14 and 9 and 75 and 34 and 3
